Earlier results as cited in patent publication US20080097335A1, “OCULAR IMPLANT DELIVERY ASSEMBLIES” (ALLERGAN, INC., priority 2006, published 2008).

Details: efficacy in vivo; 25 mg dose of hydrocortisone equivalent to 1 mg dose of dexamethasone

C[C@]12CCC(=O)C=C1CC[C@@H]1[C@@H]2[C@@H](O)C[C@@]2(C)[C@H]1CC[C@]2(O)C(=O)CO [hydrocortisone]
potency relative to dexamethasone: approximately twenty-five fold less potent than dexamethasone
